Counter-ions that a name gives are not always drawn. Like-named read-outs stand apart in the source and are kept apart here.
Assays:
E. faecalis (Ef) = assay: Broth microdilution MIC, E. faecalis; type: cell-based; settings: for MIC: Enterococcus faecalis, read-out: Ef + bicarb 25 (MIC)
How it was run: (§1)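 Following CLSI guidance with slight modification, compounds are serially diluted two-fold (eight steps, triplicate) in CAMHB-based media, some containing 25 mM bicarbonate or 0-50% heat-inactivated human serum. Each well receives 5×10^4 CFU of bacteria pre-grown at 35±2° C to 0.5 McFarland turbidity.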

E. coli (Ec) = assay: Broth microdilution MIC, E. coli; type: cell-based; settings: for MIC: Escherichia coli, read-out: E. coli + bicarb 25 (MIC)
How it was run: as §1

E. coli S30 extract = assay: E. coli S30 extract: inhibition of bacterial protein synthesis (luciferase); type: biochemical; settings: 37° C. 1 hour
How it was run: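 Coupled transcription-translation in E. coli S30 extract, programmed with pBESTluc plasmid, was run with 8-point 2-fold compound dilutions for 1 h at 37 °C. After a cold stop, luciferase luminescence was read and percent inhibition calculated against no-inhibitor controls.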

A. baumannii (Ab) = assay: Broth microdilution MIC, A. baumannii; type: cell-based; settings: for MIC: Acinetobacter baumannii, read-out: Ab + bicarb 25 (MIC)
How it was run: as §1

P. aeruginosa (Pa) = assay: Broth microdilution MIC, P. aeruginosa; type: cell-based; settings: for MIC: Pseudomonas aeruginosa, read-out: Pa + bicarb 25 (MIC)
How it was run: as §1

S. aureus (Sa) = assay: Broth microdilution MIC, S. aureus; type: cell-based; settings: for MIC: Staphylococcus aureus, read-out: Sa + bicarb 25 (MIC)
How it was run: as §1

[1] = biological target: Rabbit Reticulocyte Lysate; assay: Rabbit Reticulocyte Lysate: inhibition of eukaryotic protein synthesis (luciferase); type: biochemical; settings: 30° C. 90 minutes, read-out: Retic. IC50
How it was run: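 Nuclease-treated rabbit reticulocyte lysate translating luciferase control RNA with complete amino acids; compounds in 8-point 2-fold dilutions, 90 min at 30° C. Luminescence read after luciferase reagent; % inhibition versus water (no-inhibitor) control, no-RNA wells as background.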

[2] = E. coli, CAMHB supplemented with sodium bicarbonate 25 mM
[3] = P. aeruginosa, CAMHB supplemented with sodium bicarbonate 25 mM
[4] = S. aureus, CAMHB supplemented with sodium bicarbonate 25 mM
[5] = E. faecalis, CAMHB supplemented with sodium bicarbonate 25 mM
[6] = A. baumannii, CAMHB supplemented with sodium bicarbonate 25 mM

**Q.** What does the source list for `CC(C)(N)C(=O)N1CCN(C(=O)Nc2ccn(C3CCC(CN[C@H]4C[C@H](N)C4)CC3)c(=O)n2)CC1` (stereo partly drawn) [Compound 43, trans-4-(2-Amino-2-methylpropanoyl)-N-(1-(4-(((3-aminocyclobutyl)amino)methyl)cyclohexyl)-2-oxo-1,2-dihydropyrimidin-4-yl)piperazine-1-carboxamide hydrochloride salt]?
**A.** MIC (E. faecalis (Ef)): 8 to 32 µg/mL; MIC (E. coli (Ec)): < 8 µg/mL; IC50 (E. coli S30 extract): < 500 nM; MIC (A. baumannii (Ab)): > 32 µg/mL; MIC (P. aeruginosa (Pa)): > 32 µg/mL; MIC (S. aureus (Sa)): < 8 µg/mL; IC50 [1]: ≥ 1000 nM

**Q.** With `CC(C)(N)C(=O)N1CCN(C(=O)Nc2ccn(C3CCC(CN[C@H]4C[C@@H](N)C4)CC3)c(=O)n2)CC1` (stereo partly drawn) [Compound 44, cis-4-(2-Amino-2-methylpropanoyl)-N-(1-(4-(((3-aminocyclobutyl)amino)methyl)cyclohexyl)-2-oxo-1,2-dihydropyrimidin-4-yl)piperazine-1-carboxamide hydrochloride salt] as the compound, how does the MIC (E. faecalis (Ef)) read?
**A.** 8 to 32 µg/mL

**Q.** And the MIC (E. coli (Ec))?
**A.** < 8 µg/mL

**Q.** And the IC50 (E. coli S30 extract)?
**A.** < 500 nM

**Q.** And the MIC (A. baumannii (Ab))?
**A.** > 32 µg/mL

**Q.** What about the MIC (P. aeruginosa (Pa)) of the same compound?
**A.** > 32 µg/mL

**Q.** And the MIC (S. aureus (Sa))?
**A.** < 8 µg/mL

**Q.** And the IC50 [1]?
**A.** ≥ 1000 nM

**Q.** For `CC(C)(N)C(=O)N1CCN(C(=O)Nc2ccn(C3CCC(CN4C[C@@H]5[C@@H](N)[C@@H]5C4)CC3)c(=O)n2)CC1` (stereo partly drawn) [Compound 7, 4-(2-Amino-2-methylpropanoyl)-N-(1-(trans-4-((exo-6-amino-3-azabicyclo[3.1.0]hexan-3-yl)methyl)cyclohexyl)-2-oxo-1,2-dihydropyrimidin-4-yl)piperazine-1-carboxamide hydrochloride salt], which “Ef + bicarb 25 (MIC)” value (E. faecalis (Ef); E. faecalis, CAMHB supplemented with sodium bicarbonate 25 mM, hydrochloride salt) is on record?
**A.** +++ (An MIC value (μg/mL) that is less than 8 μg/mL)

**Q.** What about the “E. coli + bicarb 25 (MIC)” value (E. coli (Ec); [2]) of the same compound?
**A.** +++ (An MIC value (μg/mL) that is less than 8 μg/mL)

**Q.** And the IC50 (E. coli S30 extract; hydrochloride salt)?
**A.** < 500 nM

**Q.** And the “Ab + bicarb 25 (MIC)” value (A. baumannii (Ab); A. baumannii, CAMHB supplemented with sodium bicarbonate 25 mM, hydrochloride salt)?
**A.** ++ (An MIC value (μg/mL) that is 8 μg/mL or greater and less than 32 μg/mL)

**Q.** What about the “Pa + bicarb 25 (MIC)” value (P. aeruginosa (Pa); [3]) of the same compound?
**A.** + (An MIC value (μg/mL) that is 32 μg/mL or greater)

**Q.** What about the “Sa + bicarb 25 (MIC)” value (S. aureus (Sa); [4]) of the same compound?
**A.** +++ (An MIC value (μg/mL) that is less than 8 μg/mL)

**Q.** What about the IC50 [1] of the same compound?
**A.** ≥ 1000 nM

**Q.** What does the source list for `CC(C)(N)C(=O)N1CCN(C(=O)Nc2ccn(C3=CCC(CN4C[C@@H]5[C@@H](N)[C@@H]5C4)CC3)c(=O)n2)CC1` (stereo partly drawn) [Compound 12, 4-(2-Amino-2-methylpropanoyl)-N-(1-(4-(((1R,5S,6s)-6-amino-3-azabicyclo[3.1.0]hexan-3-yl)methyl)cyclohex-1-en-1-yl)-2-oxo-1,2-dihydropyrimidin-4-yl)piperazine-1-carboxamide hydrochloride salt]?
**A.** MIC (E. faecalis (Ef); [5]): < 8 µg/mL; MIC (E. coli (Ec); [2]): < 8 µg/mL; IC50 (E. coli S30 extract): < 500 nM; MIC (A. baumannii (Ab); [6]): 8 to 32 µg/mL; MIC (P. aeruginosa (Pa); [3]): > 32 µg/mL; MIC (S. aureus (Sa); [4]): < 8 µg/mL; IC50 [1]: ≥ 1000 nM

**Q.** For `CC(C)(N)C(=O)N1CCN(C(=O)Nc2ccn([C@H]3CC[C@H](CN4CC(N)C4)CC3)c(=O)n2)CC1` [Compound 52, trans-4-(2-Amino-2-methylpropanoyl)-N-(1-(4-((3-aminoazetidin-1-yl)methyl)cyclohexyl)-2-oxo-1,2-dihydropyrimidin-4-yl)piperazine-1-carboxamide hydrochloride salt], which MIC (E. faecalis (Ef)) is on record?
**A.** > 32 µg/mL

**Q.** And the MIC (E. coli (Ec))?
**A.** < 8 µg/mL

**Q.** And the IC50 (E. coli S30 extract)?
**A.** 500 to 1000 nM

**Q.** And the MIC (A. baumannii (Ab))?
**A.** > 32 µg/mL

**Q.** What about the MIC (P. aeruginosa (Pa)) of the same compound?
**A.** > 32 µg/mL

**Q.** And the MIC (S. aureus (Sa))?
**A.** 8 to 32 µg/mL

**Q.** And the IC50 [1]?
**A.** ≥ 1000 nM

**Q.** `CC(C)(N)C(=O)N1CCN(C(=O)Nc2ccn(C3CCC(CN4CC[C@H](CN)C4)CC3)c(=O)n2)CC1` (stereo partly drawn) [Compound 47, (R)-4-(2-Amino-2-methylpropanoyl)-N-(1-(4-((3-(aminomethyl)pyrrolidin-1-yl)methyl)cyclohexyl)-2-oxo-1,2-dihydropyrimidin-4-yl)piperazine-1-carboxamide Hydrochloride] was tested. Which MIC (E. faecalis (Ef)) did it give?
**A.** > 32 µg/mL

**Q.** And the MIC (E. coli (Ec))?
**A.** < 8 µg/mL

**Q.** And the IC50 (E. coli S30 extract)?
**A.** < 500 nM

**Q.** And the MIC (A. baumannii (Ab))?
**A.** > 32 µg/mL

**Q.** And the MIC (P. aeruginosa (Pa))?
**A.** > 32 µg/mL

**Q.** What about the MIC (S. aureus (Sa)) of the same compound?
**A.** < 8 µg/mL

**Q.** And the IC50 [1]?
**A.** ≥ 1000 nM

**Q.** Which results are given for `CN(CC1CC=C(n2ccc(NC(=O)N3CCN(C(=O)C(C)(C)N)CC3)nc2=O)CC1)[C@H]1CC[C@H](N)CC1` (single isomer, unassigned) [Compound 32, trans-4-(2-Amino-2-methylpropanoyl)-N-(1-(4-(((4-aminocyclohexyl)(methyl)amino)methyl)cyclohex-1-en-1-yl)-2-oxo-1,2-dihydropyrimidin-4-yl)piperazine-1-carboxamide hydrochloride salt]?
**A.** MIC (E. faecalis (Ef)): 8 to 32 µg/mL; MIC (E. coli (Ec)): < 8 µg/mL; IC50 (E. coli S30 extract): < 500 nM; MIC (A. baumannii (Ab)): > 32 µg/mL; MIC (P. aeruginosa (Pa)): > 32 µg/mL; MIC (S. aureus (Sa)): < 8 µg/mL; IC50 [1]: ≥ 1000 nM

**Q.** What does the source list for `CC(C)(N)C(=O)N1CCN(C(=O)Nc2ccn(C3=CCC(CN4CCC(CCN)CC4)CC3)c(=O)n2)CC1` (stereo not shown) [Compound 26, 4-(2-Amino-2-methylpropanoyl)-N-(1-(4-((4-(2-aminoethyl)piperidin-1-yl)methyl)cyclohex-1-en-1-yl)-2-oxo-1,2-dihydropyrimidin-4-yl)piperazine-1-carboxamide hydrochloride salt]?
**A.** MIC (E. faecalis (Ef)): < 8 µg/mL; MIC (E. coli (Ec)): < 8 µg/mL; IC50 (E. coli S30 extract): < 500 nM; MIC (A. baumannii (Ab)): > 32 µg/mL; MIC (P. aeruginosa (Pa)): > 32 µg/mL; MIC (S. aureus (Sa)): < 8 µg/mL; IC50 [1]: ≥ 1000 nM

**Q.** What does the source list for `CC(C)(N)C(=O)N1CCN(C(=O)Nc2ccn(C3CCC(CN4C[C@@H]5[C@@H](CN)[C@@H]5C4)CC3)c(=O)n2)CC1` (stereo partly drawn) [Compound 8, 4-(2-Amino-2-methylpropanoyl)-N-(1-(4-((exo-6-(aminomethyl)-3-azabicyclo[3.1.0]hexan-3-yl)methyl)cyclohexyl)-2-oxo-1,2-dihydropyrimidin-4-yl)piperazine-1-carboxamide hydrochloride salt]?
**A.** MIC (E. faecalis (Ef); [5]): < 8 µg/mL; MIC (E. coli (Ec); [2]): < 8 µg/mL; IC50 (E. coli S30 extract): < 500 nM; MIC (A. baumannii (Ab); [6]): > 32 µg/mL; MIC (P. aeruginosa (Pa); [3]): 8 to 32 µg/mL; MIC (S. aureus (Sa); [4]): < 8 µg/mL; IC50 [1]: ≥ 1000 nM

**Q.** With `CC(C)(N)C(=O)N1CCN(C(=O)Nc2ccn(C3CCC(CN(CCF)C4CCC(N)CC4)CC3)c(=O)n2)CC1` (stereo in doubt) [Compound 48, trans-cis-4-(2-Amino-2-methylpropanoyl)-N-(1-(4-(((4-aminocyclohexyl)(2-fluoroethyl)amino)methyl)cyclohexyl)-2-oxo-1,2-dihydropyrimidin-4-yl)piperazine-1-carboxamide hydrochloride salt] as the compound, how does the MIC (E. faecalis (Ef)) read?
**A.** 8 to 32 µg/mL

**Q.** And the MIC (E. coli (Ec))?
**A.** 8 to 32 µg/mL

**Q.** And the IC50 (E. coli S30 extract)?
**A.** < 500 nM

**Q.** And the MIC (A. baumannii (Ab))?
**A.** > 32 µg/mL

**Q.** What about the MIC (P. aeruginosa (Pa)) of the same compound?
**A.** > 32 µg/mL

**Q.** What about the MIC (S. aureus (Sa)) of the same compound?
**A.** 8 to 32 µg/mL

**Q.** And the IC50 [1]?
**A.** ≥ 1000 nM

— patent US20250084041A1, “ANTIMICROBIAL COMPOUNDS AND METHODS” (Curza Global, LLC, priority 2021, published 2025)
